From paper PMC9849758, “Chemically diverse activity-based probes with unexpected inhibitory mechanisms targeting trypsin-like serine proteases” (Frontiers in Chemistry, 2023)
“Also recorded” adds a separate entry of the source. Counter-ions that a name gives are not always drawn.

Tests used:
Format in all cases: biochemical
uPA [1] = biological target: T1, uPA (Homo sapiens, UniProt P00749); experiment: Kinetic progress curves (kapp, mechanism); conditions: for uPA mechanism of inhibition: defined by the progress curves: slow-binding (Rev.) or irreversible (Irrev.); for uPA kapp: apparent second-order rate constant from progress curves, mean ± SD
T1 construct: purchased HYPHEN BioMed
Protocol: Because the compounds described in this paper were previously described as irreversible inhibitors, the IC50 value is inversely correlated with the second-order rate constant of inactivation. For a simple pseudo-first-order inactivation process, the activity after incubation with inhibitor (vi) varies with the inhibitor concentration (i), as described in the following equation: vi=v0·e^−kit where v0 is the activity in the absence of an inhibitor, k is the second-order rate constant of inactivation, and t is the time. The inactivation rate constant was determined from the time course of inhibition.
Kinetic assays were performed in the following manner. The inhibitor was mixed with the substrate, and the buffer solution with the enzyme was added at the time zero. The progress curves show the release of pNA or AMC as a function of time. Initially, no inhibitor is bound to the enzyme, and the tangent to the progress curve (dA/dt) is proportional to the free enzyme concentration. The free enzyme concentration decreases over time due to inhibitor binding kinetics, as described above. Progress curves were recorded in pseudo-first-order conditions ([I]0>>[E]0) and with less than 10% conversion of the substrate during the entire time course. In these conditions, dA/dt decreases exponentially with time. The progress curves were fitted with the integrated rate equation with GraFit7 to yield a value for kobs, a pseudo-first-order rate constant. At=Ao+vs∙t+vi−vs∙1−e^−kobs∙t/kobs where At is the absorbance at time t, A0 is the absorbance at time zero, vi is the initial rate and vs is the velocity at the steady-state.
The apparent second-order rate constant (kapp) was calculated from the slope of the linear part of the plot of kobs vs. the inhibitor concentration ([I]0). In the case of competition between the inhibitor and the substrate, kapp is smaller than the “real” second-order rate constant k discussed above because a certain fraction of the enzyme is present as an enzyme-substrate complex. kapp depends on the substrate concentration used in the experiment, as described by [Lambeir et al. (1996)].
The apparent equilibrium constants were obtained from the following equations, vi/vo=1/1+I/K1; vS/vo=1/1+I/KI* where vi is the initial rate, vs is the steady-state velocity and vo is the uninhibited initial rate.

uPA [2] = biological target: T1, uPA; experiment: Jump dilution, determination of inhibition type; conditions: inhibitor at 10 times IC50, 15 min, diluted 10-fold or 100-fold; Rev./Irrev.
Protocol: (§1) The dissociation of the enzyme-inhibitor complex was monitored by substrate hydrolysis over time ([Joossens et al., 2006]).
(§2) Because ABPs are designed to be irreversible serine protease inhibitors, the IC50 is exclusively used as a first discriminatory evaluation. When an inhibitor is irreversible, its IC50 value not only depends on the substrate and enzyme concentration but also on the time of incubation with the enzyme before the reaction is started by adding the substrate. […] The progress curve in the presence of an irreversible inhibitor will show final velocities equal to zero (Figure 6C). In contrast, for a reversible inhibitor, progress curves have a non-zero final steady-state velocity (Figure 6A) ([McWhirter, 2021]). To corroborate the inhibitory mechanism of the compounds, jump-dilution assays were performed. These use an inhibitor concentration of 10-fold the IC50 for the incubation, and a posteriori, the reaction mixture is diluted 10-fold or 100-fold before adding the substrate. In the case of an irreversible inhibitor, enzymatic activity is not regained (Figure 6D), whereas, in the case of a reversible compound, a slow release of the inhibitor and a gradual increase of the enzymatic activity rate is observed (Figure 6B) ([Copeland, 2013]; [McWhirter, 2021]). The jump-dilution assays confirmed the behavior described by the progress curves.
(§3) 2.2.2 Jump dilution results
(§4) Supplementary Table 2. Jump dilution of selected alkyne and desthiobiotin probes against a panel of trypsin-like serine proteases. […]
(§5) # R R DtBa 3 tryptase Thrombin uPA CatG
(§6) 32b H Alk Irrev. Irrev. Rev. Irrev. Rev.
(§7) 45b DtB Irrev. Irrev. Rev. N.D. N.D.
(§8) 33b Alk Irrev. Irrev. Rev. Irrev. Rev.
(§9) 46b Cl DtB Irrev. Irrev. Rev. N.D. N.D.
(§10) 34b H Alk Rev. Rev. Rev. Irrev. Rev.
(§11) 50b DtB Rev. Rev. Rev. Irrev. Rev.
(§12) 35b Alk Rev. Rev. Rev. Irrev. Rev.
(§13) 52b NHCOMe DtB Rev. Rev. Rev. Irrev. Rev.
(§14) 36b Alk Rev. Rev. Rev. Irrev. Rev.
(§15) 54b Cl DtB Rev. Rev. Rev. Irrev. Rev.
(§16) 37b Alk Irrev. Irrev. N.D. Irrev. Irrev.
(§17) 55b H DtB Irrev. Irrev. N.D. Irrev. Irrev.
(§18) 38b Alk Irrev. Irrev. N.D. Irrev. Irrev.
(§19) 56b NHCOMe DtB Irrev. Irrev. N.D. Irrev. Irrev.
(§20) 39b Alk Irrev. Irrev. N.D. Irrev. Rev.
(§21) 57b Cl DtB Irrev. Irrev. N.D. Irrev. Rev.
(§22) 41b H Alk Irrev. Irrev. Irrev. N.D. N.D.
(§23) 31b Pro-Lys H Alk Irrev. Irrev. Irrev. Irrev. N.D. a Alk: ABP precursor bearing an alkyne; DtB: desthiobiotin probe b Panel of serine proteases abbreviations: urokinase plasminogen activator (uPA), cathepsin G (catG) N.D.: IC50 is greater than 10µM, and jump dilution was not performed
(§24) 2.2.3 Progress curves and Jump dilution experiments
(§25) Kinetic assays were performed in the following manner. The inhibitor was mixed with the substrate, and the buffer solution with the enzyme was added at the time zero. The progress curves show the release of para-nitroaniline (pNA) or 7-amino-4-methyl coumarin (AMC) as a function of time.
(§26) To monitor the dissociation of the inhibitor-enzyme, aliquots of the enzyme were incubated at 37 °C without and with the inhibitor at a concentration 10 times higher than its IC 50. The enzyme […]
(§27) min, the aliquots were diluted 10-fold or 100-fold into the substrate concentration and assay buffer used for the IC50 determination. The dissociation of the enzyme-inhibitor complex was monitored by substrate hydrolysis over time. Blue lines represent the control where no inhibitor was present. Pink lines represent the assay with inhibitor.

Trypsin-3 = biological target: T2, Trypsin-3 (Homo sapiens, UniProt P35030); experiment: Jump dilution, determination of inhibition type; design: purchased R&D; conditions: inhibitor at 10 times IC50, 15 min, diluted 10-fold or 100-fold; Rev./Irrev.
T2 sequence (P35030 1-304): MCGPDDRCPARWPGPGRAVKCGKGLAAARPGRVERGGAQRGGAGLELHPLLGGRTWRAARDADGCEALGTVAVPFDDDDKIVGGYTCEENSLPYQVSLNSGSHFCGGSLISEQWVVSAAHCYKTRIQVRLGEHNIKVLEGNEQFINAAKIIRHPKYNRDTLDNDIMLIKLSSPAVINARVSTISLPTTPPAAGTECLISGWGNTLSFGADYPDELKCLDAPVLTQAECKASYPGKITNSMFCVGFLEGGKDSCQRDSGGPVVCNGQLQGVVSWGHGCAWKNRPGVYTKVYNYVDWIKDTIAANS
Protocol: as §1, §2, §3, §4, §5, §6, §7, §8, §9, §10, §11, §12, §13, §14, §15, §16, §17, §18, §19, §20, §21, §22, §23, §24, §25, §26, §27

C#CCCCOC(=O)NC(c1ccc(NC(=N)N)cc1)P(=O)(Oc1ccc(Cl)cc1)Oc1ccc(Cl)cc1 (stereo not drawn) [39b, Pent-4-yn-1-yl ((bis(4-chlorophenoxy)phosphoryl)(4-guanidinophenyl)methyl)carbamate]
uPA mechanism of inhibition (uPA [1]): Irrev.
uPA jump dilution result (uPA [2]): Irrev.
Trypsin-3 jump dilution result (Trypsin-3): Irrev.

CC(=O)Nc1ccc(OP(=O)(Oc2ccc(NC(C)=O)cc2)C(Cc2ccc(NC(=N)N)cc2)NC(=O)OCCCc2cn(CCOCCOCCOCCNC(=O)CCCCC[C@H]3NC(=O)N[C@H]3C)nn2)cc1 (stereo partly drawn) [52b]
uPA kapp (uPA [1]): 38 × 10^3 ± 4175 M^−1 s^−1
uPA mechanism of inhibition (uPA [1]): Irrev.
uPA jump dilution result (uPA [2]): Irrev.
Trypsin-3 jump dilution result (Trypsin-3): Rev.

CC(=O)Nc1ccc(OP(=O)(Oc2ccc(NC(C)=O)cc2)C(NC(=O)OCCCc2cn(CCOCCOCCOCCNC(=O)CCCCC[C@H]3NC(=O)N[C@H]3C)nn2)c2ccc(NC(=N)N)cc2)cc1 (stereo partly drawn) [56b]
uPA kapp (uPA [1]): 62 ± 2 M⁻¹ s⁻¹
uPA mechanism of inhibition (uPA [1]): Irrev.
uPA jump dilution result (uPA [2]): Irrev.
Trypsin-3 jump dilution result (Trypsin-3): Irrev.

C#CCCCOC(=O)NC(c1ccc(NC(=N)N)cc1)P(=O)(Oc1ccc(NC(C)=O)cc1)Oc1ccc(NC(C)=O)cc1 (stereo not drawn) [38b, Pent-4-yn-1-yl ((bis(4-acetamidophenoxy)phosphoryl)(4-guanidinophenyl)methyl) carbamate]
uPA kapp (uPA [1]): 215 ± 7 M⁻¹ s⁻¹
uPA mechanism of inhibition (uPA [1]): Irrev.
uPA jump dilution result (uPA [2]): Irrev.
Trypsin-3 jump dilution result (Trypsin-3): Irrev.

C#CCCCOC(=O)NC(Cc1ccc(NC(=N)N)cc1)P(=O)(Oc1ccccc1)Oc1ccccc1 (stereo not drawn) [34b]
uPA kapp (uPA [1]): 75 × 10^2 ± 725 M^−1 s^−1
uPA mechanism of inhibition (uPA [1]): Irrev.
uPA jump dilution result (uPA [2]): Irrev.
Trypsin-3 jump dilution result (Trypsin-3): Rev.

C#CCCCOC(=O)NC(CCCNC(=N)N)P(=O)(Oc1ccc(Cl)cc1)Oc1ccc(Cl)cc1 (stereo not drawn) [33b]
uPA kapp (uPA [1]): 15 × 10^2 ± 12 M^−1 s^−1
uPA mechanism of inhibition (uPA [1]): irreversibility; also recorded: Irrev
uPA jump dilution result (uPA [2]): Irrev.
Trypsin-3 jump dilution result (Trypsin-3): Irrev.

C[C@@H]1NC(=O)N[C@@H]1CCCCCC(=O)NCCOCCOCCOCCn1cc(CCCOC(=O)NC(CCCNC(=N)N)P(=O)(Oc2ccccc2)Oc2ccccc2)nn1 (stereo partly drawn) [45b]
Trypsin-3 jump dilution result (Trypsin-3): Irrev.

C[C@@H]1NC(=O)N[C@@H]1CCCCCC(=O)NCCOCCOCCOCCn1cc(CCCOC(=O)NC(c2ccc(NC(=N)N)cc2)P(=O)(Oc2ccc(Cl)cc2)Oc2ccc(Cl)cc2)nn1 (stereo partly drawn) [57b]
uPA kapp (uPA [1]): 25 × 10^2 ± 11 M^−1 s^−1
uPA mechanism of inhibition (uPA [1]): Irrev.
uPA jump dilution result (uPA [2]): Irrev.
Trypsin-3 jump dilution result (Trypsin-3): Irrev.

C[C@@H]1NC(=O)N[C@@H]1CCCCCC(=O)NCCOCCOCCOCCn1cc(CCCOC(=O)NC(Cc2ccc(NC(=N)N)cc2)P(=O)(Oc2ccccc2)Oc2ccccc2)nn1 (stereo partly drawn) [50b, 3-(1-(18-((4R,5S)-5-methyl-2-oxoimidazolidin-4-yl)-13-oxo-3,6,9-trioxa-12-azaoctadecyl)-1H-1,2,3-triazol-4-yl)propyl (1-(diphenoxyphosphoryl)-2-(4-guanidinophenyl)ethyl)carbamate trifluoroacetate salt]
uPA kapp (uPA [1]): 33000 ± 12000 M⁻¹ s⁻¹
uPA mechanism of inhibition (uPA [1]): Irrev.
uPA jump dilution result (uPA [2]): Irrev.
Trypsin-3 jump dilution result (Trypsin-3): Rev.

C#CCCCOC(=O)NC(C1CCN(C(=N)N)CC1)P(=O)(Oc1ccccc1)Oc1ccccc1 (stereo not drawn) [41b]
Trypsin-3 jump dilution result (Trypsin-3): Irrev.

C[C@@H]1NC(=O)N[C@@H]1CCCCCC(=O)NCCOCCOCCOCCn1cc(CCCOC(=O)NC(CCCNC(=N)N)P(=O)(Oc2ccc(Cl)cc2)Oc2ccc(Cl)cc2)nn1 (stereo partly drawn) [46b]
uPA kapp (uPA [1]): 940 ± 37 M⁻¹ s⁻¹
uPA mechanism of inhibition (uPA [1]): Irrev.
Trypsin-3 jump dilution result (Trypsin-3): Irrev.

C#CCCCOC(=O)NC(Cc1ccc(NC(=N)N)cc1)P(=O)(Oc1ccc(Cl)cc1)Oc1ccc(Cl)cc1 (stereo not drawn) [36b]
uPA kapp (uPA [1]): 320000 ± 29000 M⁻¹ s⁻¹
uPA mechanism of inhibition (uPA [1]): Irrev.
uPA jump dilution result (uPA [2]): Irrev.
Trypsin-3 jump dilution result (Trypsin-3): Rev.

C[C@@H]1NC(=O)N[C@@H]1CCCCCC(=O)NCCOCCOCCOCCn1cc(CCCOC(=O)NC(c2ccc(NC(=N)N)cc2)P(=O)(Oc2ccccc2)Oc2ccccc2)nn1 (stereo partly drawn) [55b]
uPA kapp (uPA [1]): 77 ± 1 M⁻¹ s⁻¹
uPA mechanism of inhibition (uPA [1]): Irrev.
uPA jump dilution result (uPA [2]): Irrev.
Trypsin-3 jump dilution result (Trypsin-3): Irrev.

C[C@@H]1NC(=O)N[C@@H]1CCCCCC(=O)NCCOCCOCCOCCn1cc(CCCOC(=O)NC(Cc2ccc(NC(=N)N)cc2)P(=O)(Oc2ccc(Cl)cc2)Oc2ccc(Cl)cc2)nn1 (stereo partly drawn) [54b]
uPA kapp (uPA [1]): 230000 ± 36000 M⁻¹ s⁻¹
uPA mechanism of inhibition (uPA [1]): Irrev.
uPA jump dilution result (uPA [2]): Irrev.
Trypsin-3 jump dilution result (Trypsin-3): Rev.

C#CCCCOC(=O)NC(Cc1ccc(NC(=N)N)cc1)P(=O)(Oc1ccc(NC(C)=O)cc1)Oc1ccc(NC(C)=O)cc1 (stereo not drawn) [35b]
uPA kapp (uPA [1]): 130000 ± 30000 M⁻¹ s⁻¹
uPA mechanism of inhibition (uPA [1]): Irrev.
uPA jump dilution result (uPA [2]): Irrev.
Trypsin-3 jump dilution result (Trypsin-3): Rev.

C#CCCCOC(=O)NC(c1ccc(NC(=N)N)cc1)P(=O)(Oc1ccccc1)Oc1ccccc1.O=C(O)C(F)(F)F (stereo not drawn) [37b, Pent-4-yn-1-yl ((diphenoxyphosphoryl)(4-guanidinophenyl)methyl)carbamate trifluoroacetate salt]
uPA kapp (uPA [1]): 124 ± 23 M⁻¹ s⁻¹
uPA mechanism of inhibition (uPA [1]): Irrev.
uPA jump dilution result (uPA [2]): Irrev.
Trypsin-3 jump dilution result (Trypsin-3): Irrev.

C#CCCCOC(=O)NC(CCCNC(=N)N)P(=O)(Oc1ccccc1)Oc1ccccc1 (stereo not drawn) [32b]
uPA kapp (uPA [1]): 41 ± 4 M⁻¹ s⁻¹
uPA mechanism of inhibition (uPA [1]): Irrev.
uPA jump dilution result (uPA [2]): Irrev.
Trypsin-3 jump dilution result (Trypsin-3): Irrev.
